Data reported in patent publication US10822342B2, “Pyrazolopyrimidine derivatives as NIK inhibitors” (Janssen Pharmaceutica NV, priority 2014, dated 2020).

Experiments:
[1] = target: Recombinant Human NF-kappaB-Inducing Kinase (NIK/MAP3K14) (Homo sapiens (Human), UniProt Q99558); test: Inhibition of auto-phosphorylation of recombinant human NIK/MAP3K14 activity (AlphaScreen); assay type: biochemical; conditions: GST-tagged NIK/MAP3K14 0.2 nM, 25 microM ATP, 1 h at 25° C.; averaged over all measurements on all batches; read-out: Alpha-Screen IC50
Procedure: Inhibition of Auto-Phosphorylation of Recombinant Human NF-kappaB-Inducing Kinase (NIK/MAP3K14) Activity (AlphaScreen®)
NIK/MAP3K14 auto-phosphorylation activity was measured using the AlphaScreen® (αscreen) format (Perkin Elmer). All compounds tested were dissolved in dimethyl sulfoxide (DMSO) and further dilutions were made in assay buffer. Final DMSO concentration was 1% (v/v) in assays. Assay buffer was 50 mM Tris pH 7.5 containing 1 mM EGTA (ethylene glycol tetraacetic acid), 1 mM DTT (dithiothreitol), 0.1 mM Na3VO4, 5 mM MgCl2, 0.01% Tween® 20. Assays were carried out in 384 well Alphaplates (Perkin Elmer). Incubations consisted of compound, 25 microM Adenosine-5′-triphosphate (ATP), and 0.2 nM NIK/MAP3K14. Incubations were initiated by addition of GST-tagged NIK/MAP3K14 enzyme, carried out for 1 h at 25° C. and terminated by addition of stop buffer containing anti-phospho-IKK Ser176/180 antibody. Protein A Acceptor and Glutathione-Donor beads were added before reading using an EnVision® Multilabel Plate Reader (Perkin Elmer). Signal obtained in the wells containing blank samples was subtracted from all other wells and IC50's were determined by fitting a sigmoidal curve to % inhibition of control versus Log10 compound concentration.

JJN-3 cells = test: Antiproliferative activity on JJN-3 cells (CellTiter-Glo); assay type: cell-based; conditions: Homo sapiens, 72 hr treatment, averaged values
Procedure: (§1) Determination of Antiproliferative Activity on LP-1, L-363 and JJN-3 Cells
(§2) All compounds tested were dissolved in DMSO and further dilutions were made in culture medium. Final DMSO concentration was 0.3% (v/v) in cell proliferation assays. Viability was assessed using CellTiter-Glo cell viability assay kit (Promega). The human LP-1, L-363 and JJN-3 cells (DSMZ) were cultured in RPMI 1640 medium supplemented with 2 mM L-glutamine, and 10% fetal calf serum (PAA). Cells were routinely kept as suspension cells at 37° C. in a humidified 5% CO2 atmosphere. Cells were passaged at a seeding density of 0.2×10^6/ml twice a week. Cells were seeded in black tissue culture treated 96-well plates (Perkin Elmer). Densities used for plating ranged from 2,000 to 6,000 cells per well in a total volume of 75 μl medium. After twenty four hours, drugs and/or solvents were added (25 μl) to a final volume of 100 μl. Following 72 hr of treatment plates were removed from the incubator and allowed to equilibrate to room temperature for approx 10 min. 100 μl CellTiter-Glo reagent was added to each well that was then covered (Perkin Elmer Topseal) and shaken on plate shaker for 10 min. Luminescence was measured on a HTS Topcount (Perkin Elmer). Within an experiment, the results for each treatment were the mean of 2 replicate wells. For initial screening purposes, compounds were tested using a 9 point dilution curve (serial 1:3 dilutions). For each experiment, controls (containing no drug) and a blank incubation (containing cells read at the time of compound addition) were run in parallel. The blank value was subtracted from all control and sample values. For each sample, the mean value for cell growth (in relative light units) was expressed as a percentage of the mean value for cell growth of the control.

L-363 cells = test: Antiproliferative activity on L-363 cells (CellTiter-Glo); assay type: cell-based; conditions: Homo sapiens, 72 hr treatment, averaged values
Procedure: as §1, §2

LP-1 cells = test: Antiproliferative activity on LP-1 cells (CellTiter-Glo); assay type: cell-based; conditions: Homo sapiens, 72 hr treatment, averaged values
Procedure: as §1, §2

[2] = system: P-IKKα levels in L363 cells; test: Effect of compounds on P-IKKα levels in L363 cells; assay type: cell-based; conditions: Homo sapiens, L-363, BAFF stimulated, 2 hr treatment, Mesoscale sandwich immuno-assay, averaged values, read-out: IKKα Cellular IC50
Procedure: Effect of Compounds on P-IKKα Levels in L363 Cells
All compounds tested were dissolved in DMSO and further dilutions were made in culture medium. Final DMSO concentration was 1% (v/v) in cell assays. The human L363 cells (ATCC) were cultured in RPMI 1640 medium supplemented with GlutaMax and 10% fetal calf serum (PAA). Cells were routinely maintained at densities of 0.2×10^6 cells per ml—1×10^6 cells per ml at 37° C. in a humidified 5% CO2 atmosphere. Cells were passaged twice a week splitting back to obtain the low density. Cells were seeded in 96 well plates (Nunc 167008) at 2×10^6 per ml media in a volume of 75 μl per well plus 25 μl 1 μg/ml recombinant human B-cell activating factor (BAFF/BLyS/TNFSF13B). Seeded cells were incubated at 37° C. in a humidified 5% CO2 atmosphere for 24 hr. Drugs and/or solvents were added (20 μl) to a final volume of 120 μl. Following 2 hr treatment plates were removed from the incubator and cell lysis was achieved by the addition of 30 μl 5× lysis buffer followed by shaking on a plate shaker at 4° C. for 10 min. At the end of this incubation lysed cells were centrifuged at 800×g for 20 min at 4° C. and the lysate was assessed for P-IKKα levels by sandwich immuno-assay carried out in anti-rabbit antibody coated Mesoscale plates. Within an experiment, the results for each treatment were the mean of 2 replicate wells. […]

Sequence of Recombinant Human NF-kappaB-Inducing Kinase (NIK/MAP3K14) (Q99558 whole entry): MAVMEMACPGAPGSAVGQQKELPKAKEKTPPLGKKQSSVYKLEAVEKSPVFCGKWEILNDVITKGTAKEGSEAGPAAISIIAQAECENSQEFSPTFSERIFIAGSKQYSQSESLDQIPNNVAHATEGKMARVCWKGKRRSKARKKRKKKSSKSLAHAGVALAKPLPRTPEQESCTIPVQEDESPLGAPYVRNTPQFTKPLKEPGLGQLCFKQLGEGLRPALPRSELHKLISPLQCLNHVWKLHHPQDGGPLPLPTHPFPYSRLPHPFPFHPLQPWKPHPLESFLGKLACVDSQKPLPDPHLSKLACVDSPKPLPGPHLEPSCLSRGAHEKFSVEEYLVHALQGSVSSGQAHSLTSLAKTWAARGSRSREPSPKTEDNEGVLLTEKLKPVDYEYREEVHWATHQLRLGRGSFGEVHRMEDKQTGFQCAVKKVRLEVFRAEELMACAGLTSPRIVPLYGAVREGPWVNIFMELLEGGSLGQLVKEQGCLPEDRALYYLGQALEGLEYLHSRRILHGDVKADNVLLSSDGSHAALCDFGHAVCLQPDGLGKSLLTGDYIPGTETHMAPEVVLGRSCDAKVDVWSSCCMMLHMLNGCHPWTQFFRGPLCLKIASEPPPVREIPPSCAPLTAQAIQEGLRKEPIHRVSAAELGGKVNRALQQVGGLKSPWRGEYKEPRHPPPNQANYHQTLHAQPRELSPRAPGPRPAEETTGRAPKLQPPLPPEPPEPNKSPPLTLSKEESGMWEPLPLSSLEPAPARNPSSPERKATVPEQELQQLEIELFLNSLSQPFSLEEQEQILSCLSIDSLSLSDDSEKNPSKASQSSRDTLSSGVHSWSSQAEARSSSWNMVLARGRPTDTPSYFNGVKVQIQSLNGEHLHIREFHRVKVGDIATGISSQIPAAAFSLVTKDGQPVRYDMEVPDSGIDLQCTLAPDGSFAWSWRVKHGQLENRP

| IC50 [1] [nM] | IC50 [2] [nM] | SMILES | EC50 (JJN-3 cells) [nM] | EC50 (L-363 cells) [nM] | EC50 (LP-1 cells) [nM] |
| --- | --- | --- | --- | --- | --- |
| 52 | – | CCn1cc2nc(N)nc(-c3cn(CCCOC)c4cnc(C#CC(C)(O)C5CC5)cc34)c2n1 (stereo not shown) [Compound 9] | 217 | 162 | 629 |
| 60 | – | [2H]C([2H])([2H])C(O)(C#Cc1cc2c(-c3nc(N)nc4cn(CC)nc34)cn(C3CN(CC4CC4)C3)c2cc1F)C([2H])([2H])[2H] [Compound 7] | 95 | 53 | 202 |
| 65 | – | [2H]C([2H])([2H])C(O)(C#Cc1cc2c(-c3nc(N)nc4cn(CC)nc34)cn(CCCOC)c2cc1F)C([2H])([2H])[2H] [Compound 4] | 102 | 69 | 244 |
| 112 | – | [2H]C([2H])([2H])n1cc2nc(N)nc(-c3cn(C4CCN(CC)C4)c4cc(F)c(C#CC(O)(C([2H])([2H])[2H])C([2H])([2H])[2H])cc34)c2n1 (stereo not shown) [Compound 5] | 46 | 52 | 128 |
| 46 | – | COCCCn1cc(-c2nc(N)nc3cn(C)nc23)c2cc(C#CC(C)(C)O)ncc21 [Compound 1] | 538 | 655 | 6780 |
| 37 | – | [2H]C([2H])([2H])C(O)(C#Cc1cc2c(-c3nc(N)nc4cn(CC)nc34)cn(C3CCN(CC)C3)c2cc1F)C([2H])([2H])[2H] (stereo not shown) [Compound 6] | 40 | 38 | 70 |
| 143 | – | [2H]C([2H])([2H])C(O)(C#Cc1cc2c(-c3nc(N)nc4cn(CC)nc34)cn(C3CN(CC4CC4)C3)c2cn1)C([2H])([2H])[2H] [Compound 11] | 158 | 62 | 1180 |
| 992 | – | CCn1cc2nc(N)nc(-c3cn(CCCOC)c4cc(F)c(C#CC(C)(O)C5CC5)cc34)c2n1 (stereo not shown) [Compound 3] | 182 | 246 | 845 |
| 84 | – | [2H]C([2H])([2H])C(O)(C#Cc1cc2c(-c3nc(N)nc4cn(CC)nc34)cn(C3CN(C4CC4)C3)c2cn1)C([2H])([2H])[2H] [Compound 12] | 301 | 140 | 877 |
| 38 | – | COCCCn1cc(-c2nc(N)nc3cn(C4CC4)nc23)c2cc(C#CC(C)(O)C3CC3)ncc21 (stereo not shown) [Compound 8] | 78 | 76 | 402 |
| 23 | 103 | COCCCn1cc(-c2nc(N)nc3cn(C)nc23)c2cc(C#CC(C)(O)C3CC3)ncc21 (stereo not shown) [Compound 2] | 358 | 386 | 2960 |
| 186 | – | CCn1cc2nc(N)nc(-c3cn(C4CN(C5CC5)C4)c4cnc(C#CC(C)(O)C5CC5)cc34)c2n1 (stereo not shown) [Compound 10] | 406 | 241 | 788 |
